According to patent US20230346769A1, “USE OF SIMPLE ACYCLIC POLYAMINES FOR THE TREATMENT OF DISEASES CAUSED BY PARASITES OF THE GENUS LEISHMANIA” (Universidad De Granada, priority 2020, published 2023):

Assays:
[1] = tested on: L. infantum amastigote forms; test: In vitro activity against intracellular (amastigote) forms in macrophages; type: cell-based, Leishmania infantum
Text: (§1) Methodology: Cultures of three Leishmania species, representative of the species causing each of the clinical forms of the disease, were used for these studies. Specifically, strains MCAN/ES/2001/UCM-1 O of L.infantum, isolated and characterised in Madrid from an infected dog; MHOM/BR/1975/M2904 of L.braziliensis, isolated in Brazil in a human case, and LCR-L 133 LRC of L.donovani. isolated in Jerusalem, Israel from a case of kala-azar […] (WHO Technical Reports Series 949. Geneva: WHO. March. The cultures of parasites come from an own collection which was prepared from a biobank project (Biobank and Characterisation Unit of Strains and Species of Trypanosomatids, Responsible for Human, Animal and Plant Pathologies, Cgl-2008-03687-E/Bos.), and are available on request.
(§2) For the study of the in vitro effect on intracellular forms of Leishmania, the experimental model designed by the group of the present inventors was used [Sánchez-Moreno. M. et al. Med. Chem. 2012, 55, 9900-9913; Sánchez-Moreno. M. et al. J. Antimicrob. Chemother. 2012, 67, 387-397]. The macrophages were detached from the culture flask where they were attached by dry blows. To do this, it was incubated in cold for 5 minutes and after that the flask was hit with the palm of the hand until the cells were detached from the flask. Then, they were passed to a 25 ml capacity steriling conical bottom flask (Deltalab) to centrifuge them at 120 g for 5 minutes, removing the supernatant and were counted in Neubauer’s chamber. Cells were suspended in RPMI medium at a concentration of 1×10^4 cells/well, then cultured in 24-well plates into which a 12 mm round slide had previously been placed into each well. For adherence, the cells were left 24 h at 37° C. in 5% CO2. Subsequently, the cells were infected in vitro by placing Leishmania cells at the rate of 10 parasites/macrophage according to [Sánchez-Moreno. M et al. Med. Chem. 2011, 54, 970-979]. […] The products were allowed to act for 72 hours of incubation.
(§3) After that time, the crystals were removed and fixed with methanol on a slide and allowed to dry, after which DPX microscopy mounting medium (Panreac®) was added to it. Once the preparations had been mounted, they were dyed with Giemsa by diluting Azur-Eosin-Methylene Blue solution according to Giemsa DC (Code 251338) with Sorensen buffer (1:10 dilution). The preparations were covered and allowed to colour for 20 minutes, after which they were washed with distilled water and then allowed to drain and dry vertically. Finally, the amastigote forms were counted with the aim of immersion in a total of 200 cells.

[2] = tested on: L. infantum promastigote forms; test: In vitro activity against extracellular (promastigote) forms; type: cell-based, Leishmania infantum
Text: as §1
(§4) The promastigote forms of the three species studied were cultured in vitro in sterility in single-phase MTL culture medium (Medium Trypanosomes Liquid) made from Hank’s Balanced Salts (Sigma-Aldrich, H6136) enriched with 10% (v/v) of Fetal Bovine Serum (SBF-1) inactivated at 56° C./ 30 minutes. The parasite inoculum to initiate the culture was 5 × 10^4 cells/ml in 5 ml medium in 25 cm^2 Falcon® plastic flasks and kept in an oven at 28° C. The cultures were performed routinely, achieving exponential growth of the flagellates until obtaining the cell mass necessary for the subsequent studies. Both promastigote forms and amastigote forms were used to conduct the assays.
(§5) The promastigote forms of the three Leishmania strains, cultured in the manner described above, were harvested in their exponential growth phase by centrifugation at 400 g for 10 min. The number of parasites was counted in a Neubauer Haemocytometer Counting Chamber and were inoculated in a 24-well plate at a concentration of 5 ×10^4 parasites/well.
(§6) The compounds to be assayed were dissolved in DMSO at a concentration of 0.01% (v/v), concentration at which this solvent is not toxic nor has any effect on the growth of parasites. The compounds were added to the culture medium at final concentrations of 100, 50, 25 and 12.5 µM. […] M. et al. Med. Chem. 2011. 54. 970-979].

[3] = tested on: L. donovani amastigote forms; test: In vitro activity against intracellular (amastigote) forms in macrophages; type: cell-based, Leishmania donovani
Text: as §1, §2, §3

[4] = tested on: L. braziliensis promastigote forms; test: In vitro activity against extracellular (promastigote) forms; type: cell-based, Leishmania braziliensis
Text: as §1, §4, §5, §6

[5] = tested on: L. braziliensis amastigote forms; test: In vitro activity against intracellular (amastigote) forms in macrophages; type: cell-based, Leishmania braziliensis
Text: as §1, §2, §3

J774.2 macrophages = test: Macrophage toxicity by flow cytometry; type: cell-based; settings: J774.2 macrophages, 72 h of culture
Procedure: Macrophage toxicity: this study used the experimental model designed by the group of inventors [I. Ramírez-Macías. et. al. J. Antimicrob. Chemother. 2011, 66(4): 813-819] wherein flow cytometry is used. Briefly, macrophages from line J774.2 (ECACC number 91051511, obtained from a BALB/c female […] tumour in 1968) were deposited in a steriling tube and centrifuged at 120 g for 5 minutes. The supernatant was discarded and the cells were resuspended in MEM + Glutamine medium with 20% SBF (fetal bovine serum). 1×10^4 cells per well were then deposited from a 24-well titration plate and incubated for 24-48 h at 37° C. in a humid atmosphere enriched with 5% CO2 to fix them. […] After 72 h of incubation, the samples were prepared for reading on a flow cytometer. Specifically, 100 µl of propidium iodide solution (100 µg/ml) was added to each well and incubated for 10 min at 28° C. in the dark. Subsequently, 100 µl/well of fluorescein diacetate (FDA) (Sigma Chemical Co) in solution (100 ng/mL) was added and incubation was repeated under the same conditions for 10 minutes. Cells were recovered by centrifugation at 400 g for 10 minutes and washing the precipitate with PBS. Finally, the results were analysed in a FACS Vantage flow cytometer (Becton Dickinson) taking into account that the cells with the plasma membrane intact emit green colour as the esterases act on the FDA, while the cells that have lost the integrity of the membrane and are not viable, emit in the range close to 580 nm by penetrating the propidium iodide by passive diffusion and specifically binding to the nucleic acids thereof. Thus, to calculate the percentage of viability, the number of dead cells compared to controls was taken into account.

[6] = tested on: L. donovani promastigote forms; test: In vitro activity against extracellular (promastigote) forms; type: cell-based, Leishmania donovani
Text: as §1, §4, §5, §6

[7] = IC50 of macrophages / IC50 of parasite form

Question: Which IC50 ([1]; 72 h) does the source give for “meglumine antimoniate [Glucantime, reference compound]” here?
Answer: Its IC50 is 24.2 ± 2.6 µM.

Question: And the “Selectivity Index (SI) L. infantum Amastigote forms” value [1, 7]?
Answer: The value was 0.6.

Question: What about the IC50 ([2]; 72 h) of the same substance?
Answer: The IC50 was 18 ± 3.1 µM.

Question: What about the “Selectivity Index (SI) L. infantum Promastigote forms” value [2, 7] of the same substance?
Answer: The value was 0.8.

Question: And the IC50 ([3]; 72 h)?
Answer: Its IC50 is 24.2 ± 2.6 µM.

Question: What about the “Selectivity Index (SI) L. donvovani Amastigote forms” value [3, 7] of the same substance?
Answer: Its value is 0.6.

Question: What about the IC50 ([4]; 72 h) of the same substance?
Answer: Its IC50 is 18 ± 3.1 µM.

Question: And the “Selectivity Index (SI) L. brazilensis Promastigote forms” value [4, 7]?
Answer: Its value is 0.6.

Question: And the IC50 ([5]; 72 h)?
Answer: The IC50 was 24.2 ± 2.6 µM.

Question: And the “Selectivity Index (SI) L. brazilensis Amastigote forms” value [5, 7]?
Answer: Its value is 0.6.

Question: And the IC50 (J774.2 macrophages)?
Answer: Its IC50 is 15.2 ± 1 µM.

Question: And the IC50 ([6]; 72 h)?
Answer: Its IC50 is 18 ± 3.1 µM.

Question: And the “Selectivity Index (SI) L. donvovani Promastigote forms” value [6, 7]?
Answer: The value was 0.7.
